Experimental data: PubChem BioAssay AID2060600 (Molecular Pharmacology Branch, DTP, NCI, 2025)

System: 996289-038-R-J1-PDC complex spheroid viability
Assay: Anticancer human tumor 996289-038-R-J1-PDC patient-derived colon adenocarcinoma cell line growth inhibition [CLK]
Settings: for IC50: curve of first compound; for viability, T/C: stronger effect = lower value
How it was run: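 Patient-derived tumor cells grown as complex spheroids with HUVEC endothelial cells and mesenchymal stem cells, treated with drug combinations. Concentrations descend in half-log steps from near clinical Cmax, or from 10 microM if Cmax unknown.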

[1] = second compound 0.0316 µM, first compound 0.0316 µM
[2] = second compound 0.0316 µM, first compound 0.1 µM
[3] = second compound 0.0316 µM, first compound 0.316 µM
[4] = second compound 0.0316 µM, first compound 1 µM
[5] = second compound 0.0316 µM, first compound 3.16 µM
[6] = second compound 0.0316 µM, first compound 10 µM
[7] = second compound 0.1 µM, first compound 0.0316 µM
[8] = second compound 0.1 µM, first compound 0.1 µM
[9] = second compound 0.1 µM, first compound 0.316 µM
[10] = second compound 0.1 µM, first compound 1 µM
[11] = second compound 0.1 µM, first compound 3.16 µM
[12] = second compound 0.1 µM, first compound 10 µM
[13] = second compound 0.316 µM, first compound 0.0316 µM
[14] = second compound 0.316 µM, first compound 0.1 µM
[15] = second compound 0.316 µM, first compound 0.316 µM
[16] = second compound 0.316 µM, first compound 1 µM
[17] = second compound 0.316 µM, first compound 3.16 µM
[18] = second compound 0.316 µM, first compound 10 µM
[19] = second compound 1 µM, first compound 0.0316 µM
[20] = second compound 1 µM, first compound 0.1 µM
[21] = second compound 1 µM, first compound 0.316 µM
[22] = second compound 1 µM, first compound 1 µM
[23] = second compound 1 µM, first compound 3.16 µM
[24] = second compound 1 µM, first compound 10 µM
[25] = second compound 3.16 µM, first compound 0.0316 µM
[26] = second compound 3.16 µM, first compound 0.1 µM
[27] = second compound 3.16 µM, first compound 0.316 µM
[28] = second compound 3.16 µM, first compound 1 µM
[29] = second compound 3.16 µM, first compound 3.16 µM
[30] = second compound 3.16 µM, first compound 10 µM
[31] = second compound 10 µM, first compound 0.0316 µM
[32] = second compound 10 µM, first compound 0.1 µM
[33] = second compound 10 µM, first compound 0.316 µM
[34] = second compound 10 µM, first compound 1 µM
[35] = second compound 10 µM, first compound 3.16 µM
[36] = second compound 10 µM, first compound 10 µM
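Note: spheroids exposed to the agents for 7 days before readout.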

CC(C)CC(NC(=O)C(Cc1ccccc1)NC(=O)c1cnccn1)B(O)O (stereo unspecified) + CN1CCN(c2cc(C(=O)Nc3cc4cc(-c5cnn(C)c5)ccc4cn3)ccn2)CC1
IC50 (second compound 0.0316 µM): 4.69 nM
IC50 (second compound 0.1 µM): 3.9 nM
IC50 (second compound 0.316 µM): 2.03 nM
IC50 (second compound 1 µM): < 0.949 nM
IC50 (second compound 3.16 µM): < 0.949 nM
IC50 (second compound 10 µM): < 0.949 nM
viability, T/C (second compound 0.0316 µM, first compound 0.000949 µM): 119%
viability, T/C (second compound 0.0316 µM, first compound 0.003 µM): 77.7%
viability, T/C (second compound 0.0316 µM, first compound 0.00949 µM): 6.22%
viability, T/C (second compound 0.0316 µM, first compound 0.03 µM): 4.45%
viability, T/C (second compound 0.0316 µM, first compound 0.0949 µM): 2.91%
viability, T/C (second compound 0.0316 µM, first compound 0.3 µM): 0.26%
viability, T/C (second compound 0.1 µM, first compound 0.000949 µM): 97.5%
viability, T/C (second compound 0.1 µM, first compound 0.003 µM): 62.8%
viability, T/C (second compound 0.1 µM, first compound 0.00949 µM): 6.36%
viability, T/C (second compound 0.1 µM, first compound 0.03 µM): 0.64%
viability, T/C (second compound 0.1 µM, first compound 0.0949 µM): 0.55%
viability, T/C (second compound 0.1 µM, first compound 0.3 µM): 0.33%
viability, T/C (second compound 0.316 µM, first compound 0.000949 µM): 70.5%
viability, T/C (second compound 0.316 µM, first compound 0.003 µM): 39.5%
viability, T/C (second compound 0.316 µM, first compound 0.00949 µM): 2.17%
viability, T/C (second compound 0.316 µM, first compound 0.03 µM): 2.47%
viability, T/C (second compound 0.316 µM, first compound 0.0949 µM): 0.77%
viability, T/C (second compound 0.316 µM, first compound 0.3 µM): 1.41%
viability, T/C (second compound 1 µM, first compound 0.000949 µM): 2.7%
viability, T/C (second compound 1 µM, first compound 0.003 µM): 0.91%
viability, T/C (second compound 1 µM, first compound 0.00949 µM): 1.02%
viability, T/C (second compound 1 µM, first compound 0.03 µM): 0.56%
viability, T/C (second compound 1 µM, first compound 0.0949 µM): 0.24%
viability, T/C (second compound 1 µM, first compound 0.3 µM): 0.28%
viability, T/C (second compound 3.16 µM, first compound 0.000949 µM): 0.51%
viability, T/C (second compound 3.16 µM, first compound 0.003 µM): 0.34%
viability, T/C (second compound 3.16 µM, first compound 0.00949 µM): 0.26%
viability, T/C (second compound 3.16 µM, first compound 0.03 µM): 0.67%
viability, T/C (second compound 3.16 µM, first compound 0.0949 µM): 0.47%
viability, T/C (second compound 3.16 µM, first compound 0.3 µM): 0.21%
viability, T/C (second compound 10 µM, first compound 0.000949 µM): 0.41%
viability, T/C (second compound 10 µM, first compound 0.003 µM): 1.36%
viability, T/C (second compound 10 µM, first compound 0.00949 µM): 1.47%
viability, T/C (second compound 10 µM, first compound 0.03 µM): 1.13%
viability, T/C (second compound 10 µM, first compound 0.0949 µM): 0.38%
viability, T/C (second compound 10 µM, first compound 0.3 µM): 0.22%

CC1COCCN1c1cc(C2(S(C)(=N)=O)CC2)nc(-c2ccnc3[nH]ccc23)n1 (stereo unspecified) + CN1CCN(c2cc(C(=O)Nc3cc4cc(-c5cnn(C)c5)ccc4cn3)ccn2)CC1
IC50 (second compound 0.0316 µM): > 10000 nM
IC50 (second compound 0.1 µM): > 10000 nM
IC50 (second compound 0.316 µM): > 10000 nM
IC50 (second compound 1 µM): < 31.6 nM
IC50 (second compound 3.16 µM): < 31.6 nM
IC50 (second compound 10 µM): < 31.6 nM
viability, T/C [1]: 103%
viability, T/C [2]: 104%
viability, T/C [3]: 98.1%
viability, T/C [4]: 103%
viability, T/C [5]: 99.2%
viability, T/C [6]: 80.8%
viability, T/C [7]: 102%
viability, T/C [8]: 91.3%
viability, T/C [9]: 83.1%
viability, T/C [10]: 91.7%
viability, T/C [11]: 90.9%
viability, T/C [12]: 71%
viability, T/C [13]: 71.4%
viability, T/C [14]: 70.1%
viability, T/C [15]: 69.3%
viability, T/C [16]: 62.7%
viability, T/C [17]: 66%
viability, T/C [18]: 49.9%
viability, T/C [19]: 6.36%
viability, T/C [20]: 8.03%
viability, T/C [21]: 5.79%
viability, T/C [22]: 5.93%
viability, T/C [23]: 5.27%
viability, T/C [24]: 4.07%
viability, T/C [25]: 1.36%
viability, T/C [26]: 1.15%
viability, T/C [27]: 1.45%
viability, T/C [28]: 0.91%
viability, T/C [29]: 1.03%
viability, T/C [30]: 2.2%
viability, T/C [31]: 1.62%
viability, T/C [32]: 0.34%
viability, T/C [33]: 0.65%
viability, T/C [34]: 0.65%
viability, T/C [35]: 4.11%
viability, T/C [36]: 0.52%

O=C(c1cc(Cc2n[nH]c(=O)c3ccccc23)ccc1F)N1CCN(C(=O)C2CC2)CC1 + CN1CCN(c2cc(C(=O)Nc3cc4cc(-c5cnn(C)c5)ccc4cn3)ccn2)CC1
IC50 (second compound 0.0316 µM): > 10000 nM
IC50 (second compound 0.1 µM): > 10000 nM
IC50 (second compound 0.316 µM): > 10000 nM
IC50 (second compound 1 µM): < 31.6 nM
IC50 (second compound 3.16 µM): < 31.6 nM
IC50 (second compound 10 µM): < 31.6 nM
viability, T/C [1]: 92.9%
viability, T/C [2]: 109%
viability, T/C [3]: 91.9%
viability, T/C [4]: 110%
viability, T/C [5]: 104%
viability, T/C [6]: 100%
viability, T/C [7]: 84.9%
viability, T/C [8]: 97.3%
viability, T/C [9]: 84.6%
viability, T/C [10]: 89.2%
viability, T/C [11]: 92.7%
viability, T/C [12]: 87.8%
viability, T/C [13]: 57.9%
viability, T/C [14]: 65.9%
viability, T/C [15]: 73.4%
viability, T/C [16]: 58.4%
viability, T/C [17]: 67.9%
viability, T/C [18]: 60.4%
viability, T/C [19]: 3.61%
viability, T/C [20]: 4.51%
viability, T/C [21]: 5.54%
viability, T/C [22]: 3.94%
viability, T/C [23]: 3.05%
viability, T/C [24]: 5.36%
viability, T/C [25]: 1.23%
viability, T/C [26]: 1.19%
viability, T/C [27]: 2.64%
viability, T/C [28]: 1%
viability, T/C [29]: 0.92%
viability, T/C [30]: 1.35%
viability, T/C [31]: 0.69%
viability, T/C [32]: 1.28%
viability, T/C [33]: 0.88%
viability, T/C [34]: 2.07%
viability, T/C [35]: 0.54%
viability, T/C [36]: 2.19%
